Laboratory results from ChEMBL document CHEMBL4229437, “Polyamine-containing etoposide derivatives as poisons of human type II topoisomerases: Differential effects on topoisomerase IIα and IIβ” (Bioorg Med Chem Lett, 2018).
The source made the active and inactive calls. No cut-off for these calls is given here.

Key:
[1] = biological target: DNA topoisomerase 2-alpha (Homo sapiens) (UniProt P11388); experiment: (§1) Inhibition of recombinant human topoisomerase-2alpha expressed in Saccharomyces cerevisiae assessed as increase in single-stranded DNA cleavage at 25 uM using supercoiled pBR322 DNA as substrate incubated for 6 mins measured after 30 mins by ethidium bromide staining based agarose gel electrophoresis method relative to etoposide
Chain of DNA topoisomerase 2-alpha (Homo sapiens) (P11388 whole entry): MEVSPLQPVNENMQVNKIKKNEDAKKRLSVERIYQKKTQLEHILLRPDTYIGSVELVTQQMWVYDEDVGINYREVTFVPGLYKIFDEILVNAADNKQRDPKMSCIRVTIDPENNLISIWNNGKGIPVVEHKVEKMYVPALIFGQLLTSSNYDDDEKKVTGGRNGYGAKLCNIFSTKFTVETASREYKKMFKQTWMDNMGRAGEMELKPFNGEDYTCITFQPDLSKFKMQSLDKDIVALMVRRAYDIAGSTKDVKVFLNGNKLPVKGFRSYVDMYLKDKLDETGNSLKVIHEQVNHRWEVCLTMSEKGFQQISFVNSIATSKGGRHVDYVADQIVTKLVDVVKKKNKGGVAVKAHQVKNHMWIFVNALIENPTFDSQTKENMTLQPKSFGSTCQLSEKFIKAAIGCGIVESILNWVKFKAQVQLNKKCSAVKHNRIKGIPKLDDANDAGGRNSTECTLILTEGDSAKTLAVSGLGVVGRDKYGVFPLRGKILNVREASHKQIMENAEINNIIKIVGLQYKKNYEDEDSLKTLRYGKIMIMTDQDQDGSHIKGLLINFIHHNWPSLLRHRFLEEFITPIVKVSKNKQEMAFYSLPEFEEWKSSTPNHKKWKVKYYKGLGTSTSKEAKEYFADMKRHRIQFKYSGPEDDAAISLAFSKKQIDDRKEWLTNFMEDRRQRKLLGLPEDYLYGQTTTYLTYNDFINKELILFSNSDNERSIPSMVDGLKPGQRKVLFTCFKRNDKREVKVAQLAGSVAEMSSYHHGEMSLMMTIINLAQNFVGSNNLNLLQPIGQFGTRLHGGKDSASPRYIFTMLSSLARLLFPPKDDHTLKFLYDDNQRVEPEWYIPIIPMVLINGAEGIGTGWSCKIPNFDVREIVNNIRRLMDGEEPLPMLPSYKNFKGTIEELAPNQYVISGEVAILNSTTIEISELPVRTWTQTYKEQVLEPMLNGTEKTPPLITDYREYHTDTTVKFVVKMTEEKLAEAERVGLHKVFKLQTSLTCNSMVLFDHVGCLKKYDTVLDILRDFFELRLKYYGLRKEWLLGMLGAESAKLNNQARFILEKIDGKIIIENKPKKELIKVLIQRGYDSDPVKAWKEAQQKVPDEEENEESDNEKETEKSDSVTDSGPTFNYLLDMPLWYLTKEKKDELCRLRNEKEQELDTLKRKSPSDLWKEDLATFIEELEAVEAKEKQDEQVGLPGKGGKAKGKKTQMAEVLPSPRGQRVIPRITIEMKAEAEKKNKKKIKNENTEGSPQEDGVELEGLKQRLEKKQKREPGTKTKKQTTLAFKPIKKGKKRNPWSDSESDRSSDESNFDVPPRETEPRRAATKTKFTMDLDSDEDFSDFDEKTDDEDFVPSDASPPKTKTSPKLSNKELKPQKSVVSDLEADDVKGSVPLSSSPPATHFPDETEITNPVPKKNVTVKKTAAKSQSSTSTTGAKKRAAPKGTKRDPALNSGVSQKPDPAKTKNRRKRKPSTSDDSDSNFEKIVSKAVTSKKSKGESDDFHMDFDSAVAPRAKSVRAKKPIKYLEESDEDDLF

[2] = biological target: DNA topoisomerase 2-alpha (Homo sapiens) (UniProt P11388); experiment: as §1, with “total” for “single-stranded”
[3] = biological target: DNA topoisomerase 2-beta (Homo sapiens) (UniProt Q02880); experiment: (§2) Poison activity at recombinant human topoisomerase-2beta expressed in Saccharomyces cerevisiae assessed as stabilization of DNA-enzyme cleavage complex at 25 uM using supercoiled pBR322 DNA as substrate incubated for 6 mins measured after 30 mins by ethidium bromide staining based agarose gel electrophoresis method
Chain of DNA topoisomerase 2-beta (Homo sapiens) (Q02880 whole entry): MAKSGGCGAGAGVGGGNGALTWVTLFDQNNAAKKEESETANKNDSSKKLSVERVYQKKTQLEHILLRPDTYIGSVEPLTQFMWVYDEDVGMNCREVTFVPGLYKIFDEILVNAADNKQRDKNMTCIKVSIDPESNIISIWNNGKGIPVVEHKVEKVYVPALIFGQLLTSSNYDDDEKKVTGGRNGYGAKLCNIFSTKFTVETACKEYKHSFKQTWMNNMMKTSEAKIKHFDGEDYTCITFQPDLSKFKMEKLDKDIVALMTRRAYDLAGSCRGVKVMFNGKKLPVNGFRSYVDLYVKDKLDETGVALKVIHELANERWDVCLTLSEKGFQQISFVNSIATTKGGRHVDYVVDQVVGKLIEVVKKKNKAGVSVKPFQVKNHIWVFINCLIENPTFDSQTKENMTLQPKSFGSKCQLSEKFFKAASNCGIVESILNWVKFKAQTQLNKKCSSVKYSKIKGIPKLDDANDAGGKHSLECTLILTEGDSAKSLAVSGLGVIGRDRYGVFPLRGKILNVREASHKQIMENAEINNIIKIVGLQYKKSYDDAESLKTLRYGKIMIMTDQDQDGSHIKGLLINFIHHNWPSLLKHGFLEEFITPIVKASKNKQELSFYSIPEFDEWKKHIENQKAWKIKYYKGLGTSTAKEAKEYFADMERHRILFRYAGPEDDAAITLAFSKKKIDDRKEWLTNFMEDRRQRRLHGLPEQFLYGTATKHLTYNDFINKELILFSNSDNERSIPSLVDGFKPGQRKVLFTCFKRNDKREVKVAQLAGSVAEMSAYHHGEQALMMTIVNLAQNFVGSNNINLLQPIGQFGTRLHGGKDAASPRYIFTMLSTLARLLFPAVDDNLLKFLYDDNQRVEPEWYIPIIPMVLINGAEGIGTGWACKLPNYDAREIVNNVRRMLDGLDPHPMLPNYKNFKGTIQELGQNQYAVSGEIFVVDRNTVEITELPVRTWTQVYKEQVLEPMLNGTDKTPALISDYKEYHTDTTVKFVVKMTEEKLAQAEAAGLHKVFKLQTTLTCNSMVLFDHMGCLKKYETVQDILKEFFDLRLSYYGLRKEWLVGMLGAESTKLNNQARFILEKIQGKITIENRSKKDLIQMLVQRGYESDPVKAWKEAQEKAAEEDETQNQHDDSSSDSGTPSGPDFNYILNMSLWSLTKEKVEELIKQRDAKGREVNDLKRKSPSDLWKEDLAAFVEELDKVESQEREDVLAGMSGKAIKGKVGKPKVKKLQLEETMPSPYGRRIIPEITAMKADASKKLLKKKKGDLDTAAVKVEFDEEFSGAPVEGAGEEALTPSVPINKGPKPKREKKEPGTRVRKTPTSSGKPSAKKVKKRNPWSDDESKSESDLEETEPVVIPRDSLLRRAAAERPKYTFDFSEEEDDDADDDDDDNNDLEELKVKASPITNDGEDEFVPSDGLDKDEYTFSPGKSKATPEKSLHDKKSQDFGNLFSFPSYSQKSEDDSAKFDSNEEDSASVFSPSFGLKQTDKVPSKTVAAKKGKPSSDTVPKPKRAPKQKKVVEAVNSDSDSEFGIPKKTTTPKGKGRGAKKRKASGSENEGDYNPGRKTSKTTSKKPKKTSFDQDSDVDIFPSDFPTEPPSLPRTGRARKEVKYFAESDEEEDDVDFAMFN

[4] = biological target: DNA topoisomerase 2-alpha (Homo sapiens) (UniProt P11388); experiment: as §1, with “double-stranded” for “single-stranded”
[5] = biological target: DNA topoisomerase 2-beta (Homo sapiens) (UniProt Q02880); experiment: as §2, with “by measuring concentration required to generate 10% double-stranded DNA breaks” for “at 25 uM”
[6] = biological target: DNA topoisomerase 2-alpha (Homo sapiens) (UniProt P11388); experiment: Poison activity at recombinant human topoisomerase-2alpha expressed in Saccharomyces cerevisiae assessed as inhibition of DNA religation using single-stranded DNA at 25 uM incubated for 6 mins by agarose gel electrophoresis method
[7] = biological target: DNA topoisomerase 2-beta (Homo sapiens) (UniProt Q02880); experiment: as §1, with “topoisomerase-2beta” for “topoisomerase-2alpha”, “total” for “single-stranded”
[8] = biological target: DNA topoisomerase 2-beta (Homo sapiens) (UniProt Q02880); experiment: Inhibition of recombinant human topoisomerase-2beta expressed in Saccharomyces cerevisiae assessed as stabilization of DNA-enzyme cleavage complex at 25 uM incubated for 6 mins followed by incubation in drug-free buffer by agarose gel electrophoresis method
[9] = biological target: DNA topoisomerase 2-beta (Homo sapiens) (UniProt Q02880); experiment: Poison activity at recombinant human topoisomerase-2beta expressed in Saccharomyces cerevisiae assessed as inhibition of DNA religation using single-stranded DNA at 25 uM incubated for 6 mins by agarose gel electrophoresis method
[10] = biological target: DNA topoisomerase 2-beta (Homo sapiens) (UniProt Q02880); experiment: as §1, with “topoisomerase-2beta” for “topoisomerase-2alpha”, “double-stranded” for “single-stranded”
[11] = biological target: DNA topoisomerase 2-alpha (Homo sapiens) (UniProt P11388); experiment: Inhibition of recombinant human topoisomerase-2alpha expressed in Saccharomyces cerevisiae assessed as stabilization of DNA-enzyme cleavage complex at 25 uM incubated for […] followed by incubation in drug-free buffer by agarose gel electrophoresis method
[12] = biological target: DNA topoisomerase 2-beta (Homo sapiens) (UniProt Q02880); experiment: as §1, with “topoisomerase-2beta” for “topoisomerase-2alpha”
[13] = biological target: DNA topoisomerase 2-alpha (Homo sapiens) (UniProt P11388); experiment: as §2, with “topoisomerase-2alpha” for “topoisomerase-2beta”
[14] = biological target: DNA topoisomerase 2-alpha (Homo sapiens) (UniProt P11388); experiment: as §2, with “topoisomerase-2alpha” for “topoisomerase-2beta”, “by measuring concentration required to generate 10% double-stranded DNA breaks” for “at 25 uM”
[15] = biological target: DNA topoisomerase 2-alpha (Homo sapiens) (UniProt P11388); details: 100 uM
Description: Inhibition of recombinant human topoisomerase-2alpha expressed in Saccharomyces cerevisiae assessed as stabilization of DNA-enzyme cleavage complex at 100 uM incubated for 10 mins followed by incubation in drug-free buffer by agarose gel electrophoresis method

[16] = biological target: DNA topoisomerase 2-beta (Homo sapiens) (UniProt Q02880); experiment: Inhibition of recombinant human topoisomerase-2beta expressed in Saccharomyces cerevisiae assessed as stabilization of DNA-enzyme cleavage complex at 50 uM incubated for 6 mins followed by incubation in drug-free buffer by agarose gel electrophoresis method
[17] = biological target: DNA topoisomerase 2-alpha (Homo sapiens) (UniProt P11388); details: 100 uM; remark: listed apart in the source
Description: Poison activity at recombinant human topoisomerase-2alpha expressed in Saccharomyces cerevisiae assessed as inhibition of DNA religation using single-stranded DNA at 100 uM incubated for 6 mins by agarose gel electrophoresis method

fold change (FC) [1]	fold change (FC) [2]	fold change (FC) [4]	fold change (FC) [7]	inhibition [8]	fold change (FC) [10]	inhibition [11]	fold change (FC) [12]	inhibition [15]	inhibition [16]	inhibition [17]	SMILES	Activity [3]	Activity [5] [µM]	inhibition [6]	inhibition [9]	Activity [13]	Activity [14] [µM]
0.87	0.88	0.9	3.13	Active	2.9	Active	3.63				COc1cc([C@@H]2c3cc4c(cc3[C@@H](NC(=O)CNCCCOCCCCOCCCN)[C@H]3COC(=O)[C@H]23)OCO4)cc(OC)c1O	inactive	49.9	Active	Active	inactive	98.9
1.06	1.38	1.93	4.54	Active	4.66	Active	4.27				COc1cc([C@@H]2c3cc4c(cc3[C@@H](NC(=O)CNCCCNCCNCCCN)[C@H]3COC(=O)[C@H]23)OCO4)cc(OC)c1O	inactive	25.3	Active	Active	inactive	20.5
1.37	1.66	2.16	6.51	Active	8.36	Active	2.61				CNCCCNCCCCNCCCNCC(=O)N[C@@H]1c2cc3c(cc2[C@@H](c2cc(OC)c(O)c(OC)c2)[C@H]2C(=O)OC[C@@H]21)OCO3	inactive	7.5	Active	Active	inactive	13.2
1.14	1.28	1.52	6.8	Active	7.69	Active	4.92				COc1cc([C@@H]2c3cc4c(cc3[C@@H](NC(=O)CNCCCNCCCCN)[C@H]3COC(=O)[C@H]23)OCO4)cc(OC)c1O	inactive	11	Active	Active	inactive	54.1
								Active	Active	Active	COc1cc([C@@H]2c3cc4c(cc3[C@@H](O[C@@H]3O[C@@H]5CO[C@@H](C)O[C@H]5[C@H](O)[C@H]3O)[C@H]3COC(=O)[C@H]23)OCO4)cc(OC)c1O		> 100		Active		> 100

SMILES	fold change (FC) [1]	fold change (FC) [2]	fold change (FC) [4]	fold change (FC) [7]	inhibition [8]	fold change (FC) [10]	inhibition [11]	fold change (FC) [12]	inhibition [15]	inhibition [16]	inhibition [17]	Activity [3]	Activity [5] [µM]	inhibition [6]	inhibition [9]	Activity [13]	Activity [14] [µM]
COc1cc([C@@H]2c3cc4c(cc3[C@@H](NC(=O)CNCCCNCCCNCCCN)[C@H]3COC(=O)[C@H]23)OCO4)cc(OC)c1O	1.17	1.52	2.13	6.03	Active	7.85	Active	2.21				inactive	8.1	Active	Active	inactive	12.2
COc1cc([C@@H]2c3cc4c(cc3[C@@H](NC(=O)CNCCCNCCCCNCCCN)[C@H]3COC(=O)[C@H]23)OCO4)cc(OC)c1O	0.92	1.49	2.48	7.85	Active	10.3	Active	2.68				inactive	4.3	Active	Active	inactive	4.8
